Results from patent US8519145B2, “Aryl compounds as PPAR ligands and their use” (Seoul National University Industry Foundation, priority 2006, dated 2013).
Read-outs that look alike come from different tables or passages of the source.

Legend:
hPPARδ [1] = biological target: T1, hPPARδ (Homo sapiens, UniProt Q03181); experiment: Transfection assay (luciferase reporter), PPARδ; type: cell-based; settings: CV-1 cells, full length PPAR plasmid, 24 hours
T1 construct: Full length PPARs plasmid DNA; expressed in transfected cells; host or cells: CV-1 cells
T1 sequence (Q03181 1-441): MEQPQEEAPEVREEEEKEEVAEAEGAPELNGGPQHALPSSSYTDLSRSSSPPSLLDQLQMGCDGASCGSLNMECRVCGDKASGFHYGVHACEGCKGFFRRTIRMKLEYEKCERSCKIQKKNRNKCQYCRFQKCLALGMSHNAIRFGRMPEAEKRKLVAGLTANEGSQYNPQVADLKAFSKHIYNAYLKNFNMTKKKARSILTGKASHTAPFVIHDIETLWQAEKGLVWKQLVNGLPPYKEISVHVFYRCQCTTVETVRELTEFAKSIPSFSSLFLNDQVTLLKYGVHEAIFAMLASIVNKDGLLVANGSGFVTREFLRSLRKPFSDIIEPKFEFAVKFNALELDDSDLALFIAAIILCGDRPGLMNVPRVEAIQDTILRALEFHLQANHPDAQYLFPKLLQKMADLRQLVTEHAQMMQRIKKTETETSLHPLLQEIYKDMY
Method: (§1) The PPARδ activity of the compound represented by formula (I) of the present invention was confirmed by transfection assay. In addition, the selectivity to PPAR subtypes, PPARα and PPARγ was examined. Cytotoxicity was tested by MTT assay and in vivo activity was investigated by animal experiment.
(§2) CV-1 cells were used in this assay. The cells were inoculated in a 96-well plate containing DMEM supplemented with 10% FBS, DBS (delipidated) and 1% penicillin/streptomycin and cultured in a 37° C., 5% CO2 incubator. The experiment was performed according to the steps of inoculation, transfection, sample treatment and confirmation. Particularly, CV-1 cells were inoculated in a 96 well-plate (5000 cells/well), followed by transfection 24 hours later. Full length PPARs plasmid DNA, reporter DNA confirming PPARs activity owing to its luciferase activity, β-galactosidase DNA providing information on transfection efficiency, and transfection reagent were used for the transfection. Samples were dissolved in dimethylsulfoxide (DMSO), which were treated to the cells via media at different concentrations. After culturing the cells in the incubator for 24 hours, the cells were lysed by using lysis buffer. Luciferase activity and β-galactosidase activity were measured with Luminometer and a microplate reader. The obtained values of luciferase were modified by the values of β-galactosidase. A graph was made with those values and EC50 was calculated.

hPPARγ = biological target: T2, hPPARγ (Homo sapiens, UniProt P37231); experiment: Transfection assay (luciferase reporter), PPARγ; type: cell-based; settings: CV-1 cells, full length PPAR plasmid, 24 hours
T2 construct: Full length PPARs plasmid DNA; expressed in transfected cells; host or cells: CV-1 cells
T2 sequence (P37231 1-505): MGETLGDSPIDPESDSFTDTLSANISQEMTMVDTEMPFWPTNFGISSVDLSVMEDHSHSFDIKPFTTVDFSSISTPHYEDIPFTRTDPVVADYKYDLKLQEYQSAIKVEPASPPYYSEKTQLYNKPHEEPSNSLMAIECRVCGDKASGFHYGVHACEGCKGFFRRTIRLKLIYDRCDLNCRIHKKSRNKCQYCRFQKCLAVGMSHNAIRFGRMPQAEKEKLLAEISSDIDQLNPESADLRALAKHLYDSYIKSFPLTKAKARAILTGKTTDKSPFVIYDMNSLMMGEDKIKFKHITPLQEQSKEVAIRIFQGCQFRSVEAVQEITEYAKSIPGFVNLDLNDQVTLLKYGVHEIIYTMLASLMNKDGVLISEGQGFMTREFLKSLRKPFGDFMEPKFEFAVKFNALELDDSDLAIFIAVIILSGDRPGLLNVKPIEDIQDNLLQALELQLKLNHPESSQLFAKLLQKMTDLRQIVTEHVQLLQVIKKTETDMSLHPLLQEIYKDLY
Method: as §1, §2

hPPARα = biological target: T3, hPPARα (Homo sapiens, UniProt Q07869); experiment: Transfection assay (luciferase reporter), PPARα; type: cell-based; settings: CV-1 cells, full length PPAR plasmid, 24 hours
T3 construct: Full length PPARs plasmid DNA; expressed in transfected cells; host or cells: CV-1 cells
T3 sequence (Q07869 1-468): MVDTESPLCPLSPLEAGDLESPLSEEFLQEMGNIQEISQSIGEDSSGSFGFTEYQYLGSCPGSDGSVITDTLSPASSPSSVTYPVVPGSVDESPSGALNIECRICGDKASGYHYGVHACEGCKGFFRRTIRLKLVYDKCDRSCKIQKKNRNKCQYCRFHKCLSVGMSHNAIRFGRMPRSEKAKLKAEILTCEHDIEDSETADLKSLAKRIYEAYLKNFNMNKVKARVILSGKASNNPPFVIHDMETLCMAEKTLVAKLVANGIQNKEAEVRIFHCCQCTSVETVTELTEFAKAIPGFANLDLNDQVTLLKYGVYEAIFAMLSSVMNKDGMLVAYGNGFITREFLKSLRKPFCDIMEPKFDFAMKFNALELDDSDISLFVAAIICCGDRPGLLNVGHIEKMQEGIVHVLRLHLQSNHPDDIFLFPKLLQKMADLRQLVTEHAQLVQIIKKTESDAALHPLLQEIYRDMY
Method: as §1, §2

[2] = Obesity inhibitory effect, high-fat feed mice; type: in vivo, C57BL/6 mice; settings: 10 mg/kg/day oral, 60 days, feeds containing 35% fat
Method: Obesity Inhibitory Effect
An animal test using mice was performed to confirm the in vivo effect of the compound of the present invention. C57BL/6 (SLC Co.) mice at 8 weeks were used. To induce obesity, feeds containing 35% fat were given. While feeding such high-fat feeds for 60 days, vehicle, S14, S46 and S106 (10 mg/kg/day) were orally administered.

[3] = Morris water maze test in LPS brain disease animal model; type: in vivo, C57BL/6 mice
Method: The therapeutic effect of the compound of the present invention on dementia and Parkinson's disease based on the memory improving effect thereof was investigated using brain disease animal model (C57BL/6 mice at 10 weeks). First, LPS was injected into the mouse brain to construct brain disease animal model. The mice were divided into four groups according to the administration and exercise. The exercise was performed with treadmill at the speed of 2 meter/min for the first 5 minutes, at 5 meter/min for 5 minutes, at 8 meter/min for 5 minutes and at 20 meter/min for the last 5 minutes. At the finish, Morris water maze test was performed. As a result, the therapeutic effect of the compound of the invention on dementia and Parkinson's disease via memory enhancement by the compound and exercise was confirmed in the brain disease animal model.

[4] = Morris water maze test, treatment during pregnancy and lactation; type: in vivo; settings: 10 mg/kg oral to pregnant mice in pregnancy and lactation; control 24.2 sec
Method: An animal test was performed to investigate the therapeutic effect of the compound of the present invention on dementia and Parkinson's disease based on the memory improving effect thereof. To confirm the effect of the compound of the present invention in the period of brain development, the compound was orally administered to pregnant mice at the concentration of 10 mg/kg in the periods of pregnancy and lactation. Morris water maze test was performed to detect any changes of the brain functions of the treatment group and the control group. This test facilitates the study of spatial learning and memory, which largely depends on the hippocampus in the brain.

[5] = GTT (glucose tolerance test), diabetes improving effect; type: in vivo, mice; settings: 10 mg/Kg/day oral; for fasting blood glucose versus control: 57 days; for diabetes improving effect: GTT
Method: Diabetes Improving Effect
GTT (glucose tolerance test) was performed to confirm the diabetes improving effect of the compound of the present invention. Glucose (1.5 g/Kg) was intra-abdominally administered to the mice pre-treated orally with samples for 57 days. Blood glucose was measured every hour. Fasting blood glucose was lower in the S14, S46 and S106 (10 mg/Kg/day) treated groups than in control. […] In the meantime, the blood glucose level was not recovered to normal in the vehicle treated group even after 120 minutes.

[6] = Muscle endurance test (treadmill), treatment during pregnancy and/or lactation; type: in vivo, mice; settings: 10 mg/Kg/day
Method: Muscle Endurance Strengthening and Muscle Function Enhancing Effect
An animal test was performed to confirm muscle endurance strengthening and muscle function enhancing effect of the composition of the present invention. Most muscles are generated in developmental stage. Thus, S14, S46 and S106 (10 mg/Kg/day) were treated to pregnant mice in the period of either pregnancy or lactation or both pregnancy and lactation. Weight gaining and growth rate were not much different between fetuses of the control group and the treatment group. Muscles were observed after removing skin. As a result, muscles of the treatment group were red, unlike the control. ATPase staining and immunostaining were performed. As a result, type I muscle fiber was increased in the treatment group. The role of the changes of the muscle fiber in the enhancement of muscle endurance and muscle function was investigated by using treadmill test. As a result, running time was much extended in the treatment group, compared with the control.

[7] = Muscle endurance test (treadmill) in adult mice with forced exercise; type: in vivo, C57BL/6 mice; settings: 10 mg/kg oral, adult mice at 10 weeks, 30 days treadmill exercise
Method: Particularly, S14, S46 and S106 were orally administered to C57BL/6 mice at 10 weeks at the concentration of 10 mg/kg, during which the mice were forced to exercise. The exercise was performed with treadmill for […] once a day for 30 days, precisely at the speed of 2 meter/min for the first 5 minutes, at 5 meter/min for 5 minutes, at 8 meter/min for 5 minutes and at 20 meter/min for the last 5 minutes. At the finish, muscle endurance and muscle function enhancing effect was tested by using treadmill. As a result, the time (S14 treated group: 1.5 fold, S46 treated group: 1.3 fold, S106 treated group: 1.4 fold increased) and distance (S14 treated group: 1.5 fold, S46 treated group: 1.3 fold, S106 treated group: 1.4 fold increased) of exercise were all increased in the treatment group, compared with the control.

hPPARδ [8] = biological target: T1, hPPARδ; settings: literature, cited from earlier work
[9] = treated in pregnancy + lactation

Structure (SMILES)	EC50 (hPPARδ [1])	EC50 hPPARγ (hPPARγ)	EC50 hPPARα (hPPARα)	weight increase compared with the vehicle group [2]	Results of water maze test ([3]; Exercise (X))	Results of water maze test ([3]; Exercise (◯))	average time spent to find the platform [4]	fasting blood glucose versus control [5]	diabetes improving effect [5]	increasing rate (treatment group/control group), length ([6]; treated in lactation)	increasing rate (treatment group/control group), time ([6]; treated in lactation)	increasing rate (treatment group/control group), length [6, 9]	increasing rate (treatment group/control group), time [6, 9]	increasing rate (treatment group/control group), length ([6]; treated in pregnancy)	increasing rate (treatment group/control group), time ([6]; treated in pregnancy)	distance of exercise, increase compared with the control [7]	time of exercise, increase compared with the control [7]	EC50 (hPPARδ [8]; human PPARδ)	selectivity to hPPARδ over PPARα or PPARγ (hPPARδ [8])
Cc1cc(SC(Cc2ccccc2)c2ccc(-c3ccc(C(F)(F)F)cc3)cc2)ccc1OC(C)(C)C(=O)O (centres unmarked) [Compound 22]	9.3 nM	ia	ia	–	–	–	–	–	–	–	–	–	–	–	–	–	–	–	–
CCC(Oc1ccc(SC(Cc2ccccc2)c2ccc(-c3ccc(C(F)(F)F)cc3)cc2)cc1C)C(=O)O (centres unmarked) [Compound 23]	12 nM	ia	ia	–	–	–	–	–	–	–	–	–	–	–	–	–	–	–	–
Cc1cc(SC(Cc2ccccc2)c2ccc(-c3cc(F)c(F)c(F)c3)cc2)ccc1OCC(=O)O (centres unmarked) [Compound 46]	3.7 nM	ia	ia	43%	27 s	18 s	7.8 s	lower	had diabetes improving effect	1.5 times	1.5 times	3.0 times	2.8 times	1.9 times	1.9 times	1.3 fold	1.3 fold	–	–
Cc1cc(SC(Cc2c(F)cccc2C(F)(F)F)c2ccc(-c3ccccc3)cc2)ccc1OCC(=O)O (centres unmarked) [Compound 66]	33 nM	ia	ia	–	–	–	–	–	–	–	–	–	–	–	–	–	–	–	–
Cc1cc(SC(Cc2ccccc2)c2ccc(-c3ccc(C(F)(F)F)cc3)nc2)ccc1OCC(=O)O (centres unmarked) [Compound 106]	3.2 nM	ia	ia	37%	23 s	15 s	6.1 s	lower	had diabetes improving effect	1.8 times	1.8 times	3.4 times	3.2 times	2.2 times	2.1 times	1.4 fold	1.4 fold	–	–
CCCc1c(OCCCOc2ccc(OCC(=O)O)cc2)ccc(C(C)=O)c1O [Compound L-165041]	–	–	–	–	–	–	–	–	–	–	–	–	–	–	–	–	–	530 nM	10 times
Cc1cc(SC(Cc2ccccc2)c2ccc(-c3ccc(C(F)(F)F)cc3)cc2)ccc1OCC(=O)O (centres unmarked) [Compound S14]	2.6 nM	ia	ia	31%	21 s	12 s	5.2 s	lower	had diabetes improving effect	2.2 times	2.1 times	3.9 times	3.6 times	2.5 times	2.4 times	1.5 fold	1.5 fold	–	–
Cc1cc([Se]C(Cc2ccccc2)c2ccc(-c3ccc(C(F)(F)F)cc3)cc2)ccc1OCC(=O)O (centres unmarked) [Compound S164]	4.5 nM	ia	ia	–	–	–	–	–	–	–	–	–	–	–	–	–	–	–	–
Cc1cc([Se]Cc2ccc(-c3ccc(C(F)(F)F)cc3)cc2)ccc1OCC(=O)O [Compound S306]	53 nM	ia	ia	–	–	–	–	–	–	–	–	–	–	–	–	–	–	–	–
